For 30 compounds, Ki results are on record in patent US10988478B1, “Pyrazolo[1,5a]pyrimidine derivatives as IRAK4 modulators” (Genentech, Inc., priority 2015, dated 2021).

Each structure is given as a SMILES string.

As usually defined, the Ki is the equilibrium dissociation constant of an inhibitor or competing ligand from its target.

Chain of human IRAK4 (Q9NWZ3 whole entry, the tested form may be a part): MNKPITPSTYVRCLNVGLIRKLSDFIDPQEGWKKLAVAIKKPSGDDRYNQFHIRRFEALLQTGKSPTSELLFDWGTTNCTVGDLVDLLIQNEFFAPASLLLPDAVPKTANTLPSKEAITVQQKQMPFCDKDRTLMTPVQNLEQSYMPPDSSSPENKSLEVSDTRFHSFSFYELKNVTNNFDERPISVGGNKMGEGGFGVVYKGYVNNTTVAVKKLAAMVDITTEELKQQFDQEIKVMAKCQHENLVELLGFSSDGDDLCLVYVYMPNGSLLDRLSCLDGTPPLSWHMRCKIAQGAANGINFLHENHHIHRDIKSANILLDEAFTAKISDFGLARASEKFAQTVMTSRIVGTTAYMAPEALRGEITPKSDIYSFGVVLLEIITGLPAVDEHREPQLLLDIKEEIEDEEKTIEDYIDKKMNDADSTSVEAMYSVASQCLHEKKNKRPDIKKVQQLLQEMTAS

The target in this test is human IRAK4 (Homo sapiens (Human), UniProt Q9NWZ3). The test can be described thus: IRAK4 kinase inhibition, Transcreener fluorescence polarization ADP assay. The format is biochemical. The following applies: recombinant full-length His6-IRAK4; 125 uM ATP; 90 min; Ki computed using ATP Km 642 uM. The procedure:
Compounds were assayed for inhibition of human IRAK4 and IRAK1 catalytic activity using recombinant enzyme produced from insect cells. Full-length IRAK4 protein, carrying an N-terminal His6-Tag, was obtained from Life Technologies (Carlsbad, Calif., USA). The IRAK1 construct was produced internally and was comprised of IRAK1 residues Arg194 to Ser712, preceded by an NH2-terminal His6 tag and the coding sequence for glutathione-S-transferase.
In the case of `CC1(C)Cc2cc(NC(=O)c3cnn4cccnc34)c(N3CC4C(C3)C4(F)F)cc2O1` (stereo not drawn) [Example 112, N-(6-(6,6-difluoro-3-azabicyclo[3.1.0]hexan-3-yl)-2,2-dimethyl-2,3-dihydrobenzofuran-5-yl)pyrazolo[1,5-a]pyrimidine-3-carboxamide], the Ki is 78 nM.

Turning to `CC1(C)Cc2cc(NC(=O)c3cnn4cccnc34)c(-c3ccc(=O)[nH]c3)cc2O1` [Example 113, N-[2,2-Dimethyl-6-(6-oxo-1H-pyridin-3-yl)-3H-benzofuran-5-yl]pyrazolo[1,5-a]pyrimidine-3-carboxamide], the Ki was determined as 320 nM.

With `CC1(C)Cc2cc(NC(=O)c3cnn4cccnc34)c(N3CCC4(CC3)COC4)cc2O1` [Example 114, N-(2,2-Dimethyl-6-(2-oxa-7-azaspiro[3.5]nonan-7-yl)-2,3-dihydrobenzofuran-5-yl)pyrazolo[1,5-a]pyrimidine-3-carboxamide], the Ki is 17 nM.

Turning to `CC1(C)Cc2cc(NC(=O)c3cnn4cccnc34)c(N3CCC(O)C(F)C3)cc2O1` (stereo not drawn) [Example 115, N-(6-(3-Fluoro-4-hydroxypiperidin-1-yl)-2,2-dimethyl-2,3-dihydrobenzofuran-5-yl)pyrazolo[1,5-a]pyrimidine-3-carboxamide], the Ki is 9.5 nM.

Turning to `CC1(C)Cc2cc(NC(=O)c3cnn4cccnc34)c(N3CCCNCC3)cc2O1` [Example 116, N-(6-(1,4-diazepan-1-yl)-2,2-dimethyl-2,3-dihydrobenzofuran-5-yl)pyrazolo[1,5-a]pyrimidine-3-carboxamide], the Ki turned out to be 18 nM.

As for `CC1(C)Cc2cc(NC(=O)c3cnn4cccnc34)c(N3CCCOCC3)cc2O1` [Example 117, N-(2,2-dimethyl-6-(1,4-oxazepan-4-yl)-2,3-dihydrobenzofuran-5-yl)pyrazolo[1,5-a]pyrimidine-3-carboxamide], the Ki was determined as 17 nM.

For `CC1(C)Cc2cc(NC(=O)c3cnn4cccnc34)c(N3CCOCC3)cc2S1(=O)=O` [Example 118, N-[2,2-Dimethyl-6-(morpholin-4-yl)-1,1-dioxo-2,3-dihydro-benzothiophen-5-yl]pyrazolo[1,5-a]pyrimidine-3-carboxamide], the Ki was 14 nM.

For the compound `C[C@@]1(CO)Cc2cc(NC(=O)c3cnn4cccnc34)c(N3CCC(F)(F)CC3)cc2O1` [Example 121, (S)—N-(6-(4,4-Difluoropiperidin-1-yl)-2-(hydroxymethyl)-2-methyl-2,3-dihydrobenzofuran-5-yl)pyrazolo[1,5-a]pyrimidine-3-carboxamide], the Ki amounted to 16 nM.

For the compound `C[C@]1(CO)Cc2cc(NC(=O)c3cnn4cccnc34)c(N3CCC(F)(F)CC3)cc2O1` [Example 122, (R)—N-(6-(4,4-difluoropiperidin-1-yl)-2-(hydroxymethyl)-2-methyl-2,3-dihydrobenzofuran-5-yl)pyrazolo[1,5-a]pyrimidine-3-carboxamide], the Ki amounted to 6 nM.

For `C[C@]1(CO)Cc2cc(NC(=O)c3cnn4cccnc34)c(N3CCC4(CCOC4)CC3)cc2O1` [Example 125, (R)—N-(2-(Hydroxymethyl)-2-methyl-6-(2-oxa-8-azaspiro[4.5]decan-8-yl)-2,3-dihydrobenzofuran-5-yl)pyrazolo[1,5-a]pyrimidine-3-carboxamide], the Ki was 5 nM.

Turning to `C[C@@]1(CO)Cc2cc(NC(=O)c3cnn4cccnc34)c(N3CCC4(CCOC4)CC3)cc2O1` [Example 126, (S)—N-(2-(hydroxymethyl)-2-methyl-6-(2-oxa-8-azaspiro[4.5]decan-8-yl)-2,3-dihydrobenzofuran-5-yl)pyrazolo[1,5-a]pyrimidine-3-carboxamide], the Ki came out at 5.7 nM.

With `C[C@]1(CO)Cc2cc(NC(=O)c3cnn4cccnc34)c(N3CCC(CO)CC3)cc2O1` [Example 129, (R)—N-(2-(Hydroxymethyl)-6-(4-(hydroxymethyl)piperidin-1-yl)-2-methyl-2,3-dihydrobenzofuran-5-yl)pyrazolo[1,5-a]pyrimidine-3-carboxamide], the Ki was found to be 3.2 nM.

Turning to `C[C@@]1(CO)Cc2cc(NC(=O)c3cnn4cccnc34)c(N3CCC(CO)CC3)cc2O1` [Example 130, (S)—N-(2-(hydroxymethyl)-6-(4-(hydroxymethyl)piperidin-1-yl)-2-methyl-2,3-dihydrobenzofuran-5-yl)pyrazolo[1,5-a]pyrimidine-3-carboxamide], the Ki amounted to 3.3 nM.

In the case of `C[C@@]1(CO)Cc2cc(NC(=O)c3cnn4cc(F)cnc34)c(N3CCN(CC(F)F)CC3)cc2O1` [Example 132, (S)—N-(6-(4-(2,2-Difluoroethyl)piperazin-1-yl)-2-(hydroxymethyl)-2-methyl-2,3-dihydrobenzofuran-5-yl)-6-fluoropyrazolo[1,5-a]pyrimidine-3-carboxamide], the Ki stood at 4.8 nM.

With `C[C@]1(CO)Cc2cc(NC(=O)c3cnn4cc(F)cnc34)c(N3CCN(CC(F)F)CC3)cc2O1` [Example 133, (R)—N-(6-(4-(2,2-Difluoroethyl)piperazin-1-yl)-2-(hydroxymethyl)-2-methyl-2,3-dihydrobenzofuran-5-yl)-6-fluoropyrazolo[1,5-a]pyrimidine-3-carboxamide], the Ki stood at 4.1 nM.

For the compound `CC1(C)Cc2cc(NC(=O)c3cnn4cccnc34)c(N3CCN(C(C)(C)CO)CC3)cc2O1` [Example 137, N-[6-[4-(2-Hydroxy-1,1-dimethyl-ethyl)piperazin-1-yl]-2,2-dimethyl-3H-benzofuran-5-yl]pyrazolo[1,5-a]pyrimidine-3-carboxamide], the Ki worked out at 170 nM.

For `CC(C)N1Cc2cc(NC(=O)c3cnn4cccnc34)c(N3CCOCC3)cc2C1=O` [Example 138, N-(2-Isopropyl-6-morpholino-1-oxoisoindolin-5-yl)pyrazolo[1,5-a]pyrimidine-3-carboxamide], the Ki was 6.8 nM.

Turning to `CC(C)(O)[C@H](F)CN1Cc2cc(NC(=O)c3cnn4cccnc34)c(N3CCOCC3)cc2C1=O` [Example 139, (R)—N-(2-(2-Fluoro-3-hydroxy-3-methylbutyl)-6-morpholino-1-oxoisoindolin-5-yl)pyrazolo[1,5-a]pyrimidine-3-carboxamide], the Ki worked out at 1.5 nM.

For `CN1Cc2cc(NC(=O)c3cnn4cccnc34)c(N3CCOCC3)cc2C1=O` [Example 140, N-(2-Methyl-6-morpholino-1-oxoisoindolin-5-yl)pyrazolo[1,5-a]pyrimidine-3-carboxamide], the Ki came to 26 nM.

For the compound `CC1(CO)CCc2cc(NC(=O)c3cnn4cccnc34)c(N3CCOCC3)cc2O1` (stereo not drawn) [Example 141, N-(2-(Hydroxymethyl)-2-methyl-7-morpholinochroman-6-yl)pyrazolo[1,5-a]pyrimidine-3-carboxamide], the Ki stood at 16 nM.

`O=C(Nc1cc2c(cc1N1CCOCC1)OC1(CCNCC1)C2)c1cnn2cccnc12` [Example 142, N-(6-Morpholinospiro[3H-benzofuran-2,4′-piperidine]-5-yl)pyrazolo[1,5-a]pyrimidine-3-carboxamide]: the Ki is 20 nM.

As to `CC1(C)Cc2cc(NC(=O)c3cnn4cccnc34)c(N3CCOCC3)c(C#N)c2O1` [Example 143, N-(7-Cyano-2,2-dimethyl-6-morpholino-2,3-dihydrobenzofuran-5-yl)pyrazolo[1,5-a]pyrimidine-3-carboxamide], the Ki worked out at 740 nM.

Take `Cc1cnc2c(C(=O)Nc3cc4c(cc3N3CCOCC3)OC(C)(C(F)F)C4)cnn2c1` (stereo not drawn) [Example 144, N-(2-(Difluoromethyl)-2-methyl-6-morpholino-2,3-dihydrobenzofuran-5-yl)-6-methylpyrazolo[1,5-a]pyrimidine-3-carboxamide]: the Ki worked out at 13 nM.

For `CCOP(=O)(OCC)OCC1CCN(c2cc3c(cc2NC(=O)c2cnn4cccnc24)CC(C)(C)O3)CC1` [Example 145, [1-[2,2-Dimethyl-5-(pyrazolo[1,5-a]pyrimidine-3-carbonylamino)-3H-benzofuran-6-yl]-4-piperidyl]methyl diethyl phosphate], the Ki came to 130 nM.

For the compound `CN1CC2(Cc3cc(NC(=O)c4cnn5cccnc45)c(N4CCOCC4)cc3O2)C1` [Example 146, N-(1-methyl-6′-morpholino-3′H-spiro[azetidine-3,2′-benzofuran]-5′-yl)pyrazolo[1,5-a]pyrimidine-3-carboxamide], the Ki amounted to 27 nM.

Turning to `O=C(Nc1cc2c(cc1N1CCOCC1)OC1(C2)CN(CC(F)F)C1)c1cnn2cccnc12` [Example 147, N-(1-(2,2-Difluoroethyl)-6′-morpholino-3′H-spiro[azetidine-3,2′-benzofuran]-5′-yl)pyrazolo[1,5-a]pyrimidine-3-carboxamide], the Ki is 23 nM.

In the case of `O=C(Nc1cc2c(cc1N1CCOCC1)OC1(C2)CN(CC(F)(F)F)C1)c1cnn2cccnc12` [Example 148, N-[6-Morpholino-1′-(2,2,2-trifluoroethyl)spiro[3H-benzofuran-2,3′-azetidine]-5-yl]pyrazolo[1,5-a]pyrimidine-3-carboxamide], the Ki came to 6.1 nM.

As for `CC1(C)Cc2cc(NC(=O)c3cnn4cccnc34)c(N3CCCN(CC(F)F)CC3)cc2O1` [Example 149, N-(6-(4-(2,2-difluoroethyl)-1,4-diazepan-1-yl)-2,2-dimethyl-2,3-dihydrobenzofuran-5-yl)pyrazolo[1,5-a]pyrimidine-3-carboxamide], the Ki was 25 nM.

Regarding `CC(C)C1(C)Cc2cc(NC(=O)c3cnn4cccnc34)c(N3CCOCC3)cc2O1` (stereo not drawn) [Example 150, N-(2-Isopropyl-2-methyl-6-morpholino-2,3-dihydrobenzofuran-5-yl)pyrazolo[1,5-a]pyrimidine-3-carboxamide], the Ki is 89 nM.

With `CC(C)(O)CN1CCN(c2cc3c(cc2NC(=O)c2cnn4cccnc24)CC(C)(CO)O3)CC1` (stereo not drawn) [Example 151, N-(6-(4-(2-Hydroxy-2-methylpropyl)piperazin-1-yl)-2-(hydroxymethyl)-2-methyl-2,3-dihydrobenzofuran-5-yl)pyrazolo[1,5-a]pyrimidine-3-carboxamide], the Ki is 72 nM.
